Experimental data as given in publication PMC9229894, “In Silico, In Vitro, and Pharmacokinetic Studies of UBMC-4, a Potential Novel Compound for Treating against Trypanosoma cruzi” (Pathogens, 2022).
Several values for one entry are separate records, joined by “and”; a condition that tells them apart may be missing. Equal entries are not always repeated. Entries after “also recorded” stand apart in the source; their conditions may differ.

Key:
[1] = Cytotoxicity, MTT method, huMDM; type: cell-based; details: human, monocyte-derived macrophages (huMDM), read-out: LC50 median lethal concentration huMDM
Procedure: Cytotoxicity of UBMC-4 was tested in HepG2, CaCo2, and huMDM cell lines according to the effect on cell growth determined by the MTT microenzimatic method, as described by others. Briefly, 2.0 × 10^4 U-937 and huMDM or 2.5 × 10^4 HepG2 and CaCo2 cells were dispensed in 200 µL into each well of a 96-well tissue culture plate containing the corresponding culture medium. Then, 100 µL/well of each compound at a concentration of […] were added and plates were incubated at 37 °C, 5% CO2. After 72 h of incubation, 20 μL of MTT (Sigma-Aldrich, St Louis, MO, USA) were added to each well and plates were incubated for 3 h at 37 °C, 5% CO2. […] The concentration of formazan was determined at 570 nm in a spectrophotometer (Varioskan Flash Multimode Reader, Thermo Scientific, Waltham, MA, USA). […] Cytotoxicity was determined according to the percentages of viability and cell growth inhibition obtained for each compound, bz, doxorubicin, or medium alone. Non-specific absorbance was corrected by subtracting the OD of the blank (culture medium). Percentages of mortality were calculated using equation, as follows: % mortality = 100 − [(O.D. of treated cells)/(O.D. of non-treated cells)] × 100. The half maximal effective concentration (EC50) was calculated by the linear regression model Probit using Graphpad Prism software.

T. cruzi epimastigotes = assay: Flow cytometry of apoptosis-like markers in epimastigotes (Hoechst, DiOC6, PI); type: cell-based, Trypanosoma cruzi; details: 10 µM, 24 h
Procedure: Apoptosis-like markers were analyzed by triple staining using 3,3′-dihexyloxacarbocyanine (DiOC6), propidium iodide (PI), and Hoechst from Thermo Fisher Scientific to determine the change of mitochondrial membrane potential (ΔΨm), cell membrane damage, and impairment of cell cycle, respectively. All readings were performed on a BD FACSCanto II 4/2/2 Sys IVD flow cytometer, and data obtained were analyzed using the FlowJo7.6.2 software. Differences between treatments were determined by a two-way ANOVA for multiple comparisons with 95% significance using GraphPad Prism 8. In all cases, 20 µL of parasites (5 × 10^6/mL) were stained per treatment with 300 µL of Hanks’ balanced saline solution (HBSS) and 10 µL of the staining mix containing […], 0.5 µL of 70 nM DiOC6, and 0.5 µL of 10 mg/mL Hoechst. Subsequently, parasites were incubated at room temperature for 15 min until reading.
T. cruzi epimastigotes in exponential growth phase were used to submit the parasites to a treatment under nutritional stress and further challenging the culture with the inhibitor UBMC-4 and the control drug bz. Nutritional stress was induced by starving the parasites in PBS. Parasites were grown either in complete RPMI medium or PBS (with and without 10 µM UBMC-4) for 24 h at 28 °C. Three independent biological replicates were analyzed per treatment. The experiments were performed in 24-well plates at an initial concentration of 1 × 10^7 total parasites in 2 mL/well. Parasites were centrifuged at 1800 RCF for 5 min, washed once with PBS buffer, and then resuspended in a final volume of 2 mL for further labeling and flow cytometry.

[2] = In vivo pharmacokinetic analysis of UBMC-4 in mice (HPLC plasma, two-compartment model); set-up: species or system Balb/c Mus musculus
Procedure: A total of 30 mice (15 males and 15 females) was randomly selected and divided into two groups: one group received a 200 µL oral single dose of UBMC-4 at a concentration of 60 mM (equivalent to a 200 mg/kg dose), and a control group receiving 200 µL of vehicle (Kolliphor and water without UBMC-4) via oral route. Considering that the average weight of the mice was 25 g, the total amount of UBMC-4 administered was 5 mg. The compound was only administered orally, it was not used intravenously since one of the primary objectives was to evaluate its gastrointestinal absorption. […] In this way, we wanted to find the highest potential plasma concentrations before inducing toxicity. Blood samples were collected in EDTA tubes via intracardiac puncture performed under general anesthesia in both groups at sampling time points as follows: 0 h, 1 h, 2 h, 3 h, 5 h, 6 h, 8 h, and 24 h. Samples were then centrifuged at 1800 rpm at 4 °C for 10 min to collect plasma. For each sampling time point, 100 µL of mouse plasma were collected and 200 µL of acetone were added. This mixture was vortexed for 30 s and centrifuged at 10,000 rpm at 4 °C for 20 min. Supernatants were poured into vials for HPLC analysis following the method described below.
The amount of UBMC-4 in plasma samples was quantified by a HPLC method using a Hitachi Chromaster HPLC System with a Knauer C18 Column as follows: λ: 300 nm; temperature: 40 °C; run time: 13 min at a flow rate of 1.0 mL/min. A gradient of acetonitrile:water:methanol in a 30:40:30 ratio was used as mobile phase from baseline to minute 6, a 20:0:80 ratio from minute 7 to minute 10, and again a 30:40:30 ratio from minute 11. Linearity of the method was calculated for the 0.5 µg/mL to 20 µg/mL concentration range, with a r^2 (correlation coefficient) of 0.969 for the relationship between the area under the curve and UBMC-4 absorption at 300 nm.
The ADAPT 5 software was used to determine the most suitable model for the UBMC-4 plasma concentration profile. The maximum likelihood estimation method was used for modeling. After conducting trials where various models were used, the best one was chosen based on the -Log-Likelihood (-LL) and Akaike information criterion (AIC) values. Consequently, by comparing models, the one producing lower values amongst these two parameters would be the one that best fit the plasma concentration data and the most useful for pharmacokinetic studies. Moreover, based on the R-square value (r^2), we assessed the correlation between the values predicted by the model and those observed in UBMC-4 plasma concentration. The selected model was therefore used to elaborate simulations using different administration regimens and thus predicting what would happen with UBMC-4 concentration levels upon administration of repeated dosage. This simulation was also performed using ADAPT 5 [36, 66, 67]

[3] = two-compartment model, 200 mg/kg oral

For `Oc1ccc(-c2nc(-c3ccc4sc5ccccc5c4c3)c(-c3ccccc3)[nH]2)cc1` [UBMC-4, 4-(4-dibenzo-[b,d]-thien-2-yl-5-phenyl-1H-imidazol-2-yl)phenol], the CC50 at 72 h [1] was > 40 µM, the “changes in apoptosis-like markers” value (T. cruzi epimastigotes; normal culture conditions) was “no changes in apoptosis-like markers” and the “DNA fragmentation (hypodiploid, Sub G0/G1), % of population” value (T. cruzi epimastigotes; nutritional stress) was “up to 39.4%”. For the same molecule, the “cell membrane damage (PI), % of population” value (T. cruzi epimastigotes; nutritional stress) was 38.4%, the “mitochondrial depolarization (DiOC6), % of population” value (T. cruzi epimastigotes; nutritional stress) was 99.9% and the “time of highest plasma concentration” value ([2]; 200 mg/kg oral single dose) was 3 h. The oral absorption ([2]; 200 mg/kg oral, Kolliphor RH40 formulation, 200 mg/kg) was “well absorbed; also recorded: absorbed orally”, the concentration at 0 h ([2]; both sexes, Balb/c, mouse, plasma, 200 mg/kg oral single dose, 0 h) was 0 ng/mL and the concentration at 1 h ([2]; both sexes, Balb/c, mouse, plasma, 200 mg/kg oral single dose, 1 h) was 2800 ng/mL and 6.69 µM. For the same molecule, the concentration at 2 h ([2]; both sexes, Balb/c, mouse, plasma, 200 mg/kg oral single dose, 2 h) was 3200 ng/mL, the concentration at 3 h ([2]; both sexes, Balb/c, mouse, plasma, 200 mg/kg oral single dose, 3 h) was 4200 ng/mL and the concentration at 5 h ([2]; both sexes, Balb/c, mouse, plasma, 200 mg/kg oral single dose, 5 h) was 3800 ng/mL. The concentration at 6 h ([2]; both sexes, Balb/c, mouse, plasma, 200 mg/kg oral single dose, 6 h) was 3700 ng/mL, the concentration at 8 h ([2]; both sexes, Balb/c, mouse, plasma, 200 mg/kg oral single dose, 8 h) was 3600 ng/mL and the concentration at 24 h ([2]; both sexes, Balb/c, mouse, plasma, 200 mg/kg oral single dose, 24 h) was 2400 ng/mL and 5.74 µM. The Cmax ([2]; both sexes, Balb/c, mouse, plasma, po, 200 mg/kg, 200 mg/kg oral single dose, read-out: highest plasma concentration (Cmax)) was 4200 ng/mL and 10 µM, the half-life ([2]; both sexes, Balb/c, mouse, plasma, two-compartment model, 200 mg/kg oral, read-out: estimated half-life (t1/2) (converted)) was 22.4 h and the CLd/F intercompartmental clearance [2, 3] was 0.2514 L/h. It also gave a CLt/F total clearance [2, 3] of 0.0357 L/h, a Ka absorption constant [2, 3] of 0.6213 h⁻¹ and a Vc/F central volume [2, 3] of 0.6930 L. For the same molecule, the Vp/F peripheral volume [2, 3] was 0.4360 L.
